pEC50: −log10 of the molar value.

The first assay concerns T-47D. Kind of assay: Caspase cascade activation assay (N-(Ac-DEVD)-N'-ethoxycarbonyl-R110 fluorogenic substrate) in T-47D cells. The note with it: 24 h incubation, ratio of net RFU (T=3 h) to that of control samples, 0.16 to 10 μM final. Format: cell-based, Human. Here is the method: Human breast cancer cell lines T-47D was grown according to media component mixtures designated by American Type Culture Collection+10% FCS (mvitrogen Corporation), in a 5% CO2-95% humidity incubator at 37° C. T-47D and ZR-75-1 cells were maintained at a cell density between 30 and 80% confluency and for HL-60 at a cell density of 0.1 to 0.6×10^6 cells/mL. Cells were harvested at 600×g and resuspended at 0.65×10^6 cells/mL into appropriate media+10% FCS. An aliquot of 45 μL of cells was added to a well of a 96-well microtiter plate containing 5 μL of a 10% DMSO in RPMI-1640 media solution containing 1.6 to 100 μM of 1,3-dimethyl-N-(4-methoxyphenyl)-1H-pyrazolo[3,4-b]quinolin-4-amine or other test compound (0.16 to 10 μM final). An aliquot of 45 μL of cells was added to a well of a 96-well microtiter plate containing 5 μL of a 10% DMSO in RPMI-1640 media solution without test compound as the control sample. The samples were mixed by agitation and then incubated at 37° C. for 24 h in a 5% CO2-95% humidity incubator. After incubation, the samples were removed from the incubator and 50 μL of a solution containing 20 μM of N-(Ac-DEVD)-N′-ethoxycarbonyl-R110 fluorogenic substrate (SEQ ID NO:1) (Cytovia, Inc.; U.S. Pat. No. 6,335,429), 20% sucrose (Sigma), 20 mM DTT (Sigma), 200 mM NaCl (Sigma), 40 mM Na PIPES buffer pH 7.2 (Sigma), and 500 μg/mL lysolecithin (Calbiochem) was added. The samples were mixed by agitation and incubated at room temperature. Using a fluorescent plate reader (Model 1420 Wallac Instruments), an initial reading (T=0) was made about 1-2 min after addition of the substrate solution, employing excitation at 485 nm and emission at 530 nm, to determine the background fluorescence of the control sample. After about 3 h of incubation, the samples were read for fluorescence as above (T=3 h).
The Relative Fluorescence Unit values (RFU) were used to calculate the sample readings as follows: RFU(T=3h)−Control RFU(T=0)=Net RFU(T=3h)
The activity of caspase cascade activation was determined by the ratio of the net RFU value for 1,3-dimethyl-N-(4-methoxyphenyl)-1H-pyrazolo[3,4-b]quinolin-4-amine to that of control samples. The EC50 (nM) was determined by a sigmoidal dose-response calculation (Prism 2.0, GraphPad Software Inc.).
For the compound `COC(=O)c1ccc(N(C)c2c3ccccc3nc3c2c(C)nn3C)cc1` [Example 30, 1,3-Dimethyl-N-methyl-N-(4-methoxycarbonylphenyl)-1H-pyrazolo[3,4-b]quinolin-4-amine], the “Caspase Activity Ratio” value came to 6.6.
Same read-out and setting: in the case of `COc1ccc(N(C)c2c3ccccc3nc3c2c(C)nn3C)cc1` [Example 31, 1,3-Dimethyl-N-methyl-N-(4-methoxyphenyl)-1H-pyrazolo[3,4-b]quinolin-4-amine] it was 9.7.
Turning to `CSc1ccc(Nc2c3ccccc3nc3c2c(C)nn3C)cc1` [Example 33, 1,3-Dimethyl-N-(4-methylthiophenyl)-1H-pyrazolo[3,4-b]quinolin-4-amine], the “Caspase Activity Ratio” value is 3.6.
Still for that read-out and setting: in the case of `CCC(=O)c1ccc(Nc2c3cccc([N+](=O)[O-])c3nc3c2c(C)nn3C)cc1` [Example 37, 1,3-Dimethyl-8-nitro-N-(4-propionylphenyl)-1H-pyrazolo[3,4-b]quinolin-4-amine] it was 4.2; in that of `CCC(=O)c1ccc(Nc2c3cccc(N)c3nc3c2c(C)nn3C)cc1` [Example 38, 8-Amino-1,3-dimethyl-N-(4-propionylphenyl)-1H-pyrazolo[3,4-b]quinolin-4-amine], 5.1; in that of `CCC(=O)c1ccc(Nc2c3ccccc3nc3c2c(C)nn3CC)cc1` [Example 42, 1-Ethyl-3-methyl-N-(4-propionylphenyl)-1H-pyrazolo[3,4-b]quinolin-4-amine], 6.7.
In the case of `CCC(O)c1ccc(Nc2c3ccccc3nc3c2c(C)nn3C)cc1` (stereo not shown) [Example 43, N-(4-(1-Hydroxypropyl)-phenyl)-1,3-dimethyl-1H-pyrazolo[3,4-b]quinolin-4-amine], the “Caspase Activity Ratio” value is listed as 3.7.

Staying with this assay, now noted: Homo sapiens, T47D, 24 h incubation, sigmoidal dose-response calculation, read-out: Caspase Potency EC50.
Consider `COC(=O)c1ccc(N(C)c2c3ccccc3nc3c2c(C)nn3C)cc1` [Example 30, 1,3-Dimethyl-N-methyl-N-(4-methoxycarbonylphenyl)-1H-pyrazolo[3,4-b]quinolin-4-amine], for which the pEC50 was 5.55.
Same read-out and setting: the same measure for `COc1ccc(N(C)c2c3ccccc3nc3c2c(C)nn3C)cc1` [Example 31, 1,3-Dimethyl-N-methyl-N-(4-methoxyphenyl)-1H-pyrazolo[3,4-b]quinolin-4-amine]: 5.39; for `CSc1ccc(Nc2c3ccccc3nc3c2c(C)nn3C)cc1` [Example 33, 1,3-Dimethyl-N-(4-methylthiophenyl)-1H-pyrazolo[3,4-b]quinolin-4-amine]: 6.18; for `CCC(=O)c1ccc(Nc2c3cccc([N+](=O)[O-])c3nc3c2c(C)nn3C)cc1` [Example 37, 1,3-Dimethyl-8-nitro-N-(4-propionylphenyl)-1H-pyrazolo[3,4-b]quinolin-4-amine]: 6.36.
Still for that read-out and setting: in the case of `CCC(=O)c1ccc(Nc2c3cccc(N)c3nc3c2c(C)nn3C)cc1` [Example 38, 8-Amino-1,3-dimethyl-N-(4-propionylphenyl)-1H-pyrazolo[3,4-b]quinolin-4-amine] it was 6.15.
Same read-out and setting: the same measure for `CCC(=O)c1ccc(Nc2c3ccccc3nc3c2c(C)nn3CC)cc1` [Example 42, 1-Ethyl-3-methyl-N-(4-propionylphenyl)-1H-pyrazolo[3,4-b]quinolin-4-amine]: 6.76; for `CCC(O)c1ccc(Nc2c3ccccc3nc3c2c(C)nn3C)cc1` (stereo not shown) [Example 43, N-(4-(1-Hydroxypropyl)-phenyl)-1,3-dimethyl-1H-pyrazolo[3,4-b]quinolin-4-amine]: 6.74.

The next assay relates to T-47D. Kind of assay: Inhibition of cell proliferation (GI50), CellTiter 96 AQUEOUS One Solution, T-47D cells. It counts as cell-based, Human. As to conditions: Homo sapiens, T47D, 48 h incubation, dose for 50% inhibition of cell proliferation. As to the method: (§1) T-47D and MX1 cells were grown and harvested as in Example 49. An aliquot of 90 μL of cells (2.2×10^4 cells/mL) was added to a well of a 96-well micrQtiter plate containing 10 μl of a 10% DMSO in RPMI-1640 media solution containing […] to 100 μM of 1,3-dimethyl-N-(4-methoxyphenyl)-1H-pyrazolo[3,4-b]quinolin-4-amine (0.1 nM to 10 μM final) or other test compound. An aliquot of 90 μL of cells was added to a well of a 96-well microtiter plate containing 10 μL of a 10% DMSO in RPMI-1640 media solution without compound as the control sample for maximal cell proliferation (AMax). The samples were mixed by agitation and then incubated at 37° C. for 48 h in a 5% CO2-95% humidity incubator. After incubation, the samples were removed from the incubator and 20 μL of CellTiter 96 AQUEOUS One Solution Cell Proliferation™ reagent (Promega) was added. The samples were mixed by agitation and incubated at 37° C. for 2-4 h in a 5% CO2-95% humidity incubator. Using an absorbance plate reader (Model 1420 Wallac Instruments), an initial reading (T=0) was made about 1-2 min after addition of the solution, employing absorbance at 490 nm. This determines the possible background absorbance of the test compounds. No absorbance for 1,3-dimethyl-N-(4-methoxyphenyl)-1H-pyrazolo[3,4-b]quinolin-4-amine was found at 490 nm. After the 2-4 h incubation, the samples were read for absorbance as above (ATest).
(§2) Baseline for GI50 (dose for 50% inhibition of cell proliferation) of initial cell numbers were determined by adding an aliquot of 90 μL of cells or 90 μL of media, respectively, to wells of a 96-well microtiter plate containing 10 μL of a 10% DMSO in RPMI-1640 media solution. The samples were mixed by agitation and then incubated at 37° C. for 0.5 h in a 5% CO2-95% humidity incubator. After incubation, the samples were removed from the incubator and 20 μL of CellTiter 96 AQUEOUS One Solution Cell Proliferation™ reagent (Promega) was added. The samples were mixed by agitation and incubated at 37° C. for 2-4 h in a 5% CO2-95% humidity incubator. Absorbance was read as above, (Astart) defining absorbance for initial cell number used as baseline in GI50 determinations.
(§3) GI50 (dose for 50% inhibition of cell proliferation) is the concentration where [(ATest−Astart)/(AMax−AStart)]=0.5.
In turn, `COC(=O)c1ccc(N(C)c2c3ccccc3nc3c2c(C)nn3C)cc1` [Example 30, 1,3-Dimethyl-N-methyl-N-(4-methoxycarbonylphenyl)-1H-pyrazolo[3,4-b]quinolin-4-amine] gave a GI50 of 4560 nM.
The same measure, in the same setting: the same measure for `COc1ccc(N(C)c2c3ccccc3nc3c2c(C)nn3C)cc1` [Example 31, 1,3-Dimethyl-N-methyl-N-(4-methoxyphenyl)-1H-pyrazolo[3,4-b]quinolin-4-amine]: 6100 nM.
Same read-out and setting: the same measure for `CSc1ccc(Nc2c3ccccc3nc3c2c(C)nn3C)cc1` [Example 33, 1,3-Dimethyl-N-(4-methylthiophenyl)-1H-pyrazolo[3,4-b]quinolin-4-amine]: 500 nM; for `CCC(=O)c1ccc(Nc2c3cccc([N+](=O)[O-])c3nc3c2c(C)nn3C)cc1` [Example 37, 1,3-Dimethyl-8-nitro-N-(4-propionylphenyl)-1H-pyrazolo[3,4-b]quinolin-4-amine]: 546 nM; for `CCC(=O)c1ccc(Nc2c3cccc(N)c3nc3c2c(C)nn3C)cc1` [Example 38, 8-Amino-1,3-dimethyl-N-(4-propionylphenyl)-1H-pyrazolo[3,4-b]quinolin-4-amine]: 803 nM.
Same read-out and setting: in the case of `CCC(=O)c1ccc(Nc2c3ccccc3nc3c2c(C)nn3CC)cc1` [Example 42, 1-Ethyl-3-methyl-N-(4-propionylphenyl)-1H-pyrazolo[3,4-b]quinolin-4-amine] it was 100 nM; in that of `CCC(O)c1ccc(Nc2c3ccccc3nc3c2c(C)nn3C)cc1` (stereo not shown) [Example 43, N-(4-(1-Hydroxypropyl)-phenyl)-1,3-dimethyl-1H-pyrazolo[3,4-b]quinolin-4-amine], 140 nM.

In the next assay the test system is MX1. The assay is described as follows: Inhibition of cell proliferation (GI50), CellTiter 96 AQUEOUS One Solution, MX1 cells. Format: cell-based. As to conditions: Homo sapiens, 48 h incubation, dose for 50% inhibition of cell proliferation. As to the method:
as §1, §2, §3
In the case of `COC(=O)c1ccc(N(C)c2c3ccccc3nc3c2c(C)nn3C)cc1` [Example 30, 1,3-Dimethyl-N-methyl-N-(4-methoxycarbonylphenyl)-1H-pyrazolo[3,4-b]quinolin-4-amine], the 50% growth inhibitory concentration (GI50) was 4000 nM.
On the same count and under the same terms, the same measure for `COc1ccc(N(C)c2c3ccccc3nc3c2c(C)nn3C)cc1` [Example 31, 1,3-Dimethyl-N-methyl-N-(4-methoxyphenyl)-1H-pyrazolo[3,4-b]quinolin-4-amine]: > 10000 nM; for `CSc1ccc(Nc2c3ccccc3nc3c2c(C)nn3C)cc1` [Example 33, 1,3-Dimethyl-N-(4-methylthiophenyl)-1H-pyrazolo[3,4-b]quinolin-4-amine]: 500 nM.
Same read-out and setting: in the case of `CCC(=O)c1ccc(Nc2c3cccc([N+](=O)[O-])c3nc3c2c(C)nn3C)cc1` [Example 37, 1,3-Dimethyl-8-nitro-N-(4-propionylphenyl)-1H-pyrazolo[3,4-b]quinolin-4-amine] it was 900 nM; in that of `CCC(=O)c1ccc(Nc2c3cccc(N)c3nc3c2c(C)nn3C)cc1` [Example 38, 8-Amino-1,3-dimethyl-N-(4-propionylphenyl)-1H-pyrazolo[3,4-b]quinolin-4-amine], 2210 nM; in that of `CCC(=O)c1ccc(Nc2c3ccccc3nc3c2c(C)nn3CC)cc1` [Example 42, 1-Ethyl-3-methyl-N-(4-propionylphenyl)-1H-pyrazolo[3,4-b]quinolin-4-amine], 100 nM.
For the compound `CCC(O)c1ccc(Nc2c3ccccc3nc3c2c(C)nn3C)cc1` (stereo not shown) [Example 43, N-(4-(1-Hydroxypropyl)-phenyl)-1,3-dimethyl-1H-pyrazolo[3,4-b]quinolin-4-amine], halving of growth (GI50) required 1670 nM.

Usually pEC50 stands for the EC50 on a negative log10 scale, so that one unit is a factor of ten. What is called GI50 is the concentration that inhibits growth by half. Low values mean more potent growth inhibition, high ones less potent growth inhibition.

The values are drawn from US20070253957A1, “Substituted N-Aryl-1H-Pyrazolo[3,4-B]Quinolin-4-Amines and Analogs as Activators of Caspases and Inducers of Apoptosis” (Cytovia, Inc., priority 2004, published 2007).
